The source of these data is US12521437B2 (Synthorx, Inc., priority 2019, dated 2026).

For one data set, the system named is CD8+ T cells. The data set can be described thus: pSTAT5 signaling in human LRS-derived PBMC samples, CD8+ T cells (flow cytometry). In kind it is cell-based. As to conditions: Table 13 (Example 11). As for the experimental part: (§1) These studies were performed at PrimityBio LLC (Fremont, CA). […] Staining panel for flow cytometry study of LRS-derived PBMC samples include markers for Effector T cells (Teff: CD3+, CD4+, CD8+, CD127+), NK cells (CD3-, CD16+), and Regulatory T cells (Treg: CD3+, CD4+, CD8-, IL-2Rα+, CD127-1).
(§2) These studies were performed at PrimityBio LLC (Fremont, CA). […] Staining panel for flow cytometry study of LRS-derived PBMC samples include markers CD4, CD4+ memory central, CD4+ memory effect, CD4+ memory T cells, CD4+ Naive T cells, CD4+ T cells, CD8, CD8+ memory central, CD8+ memory effect, CD8+ memory T cells, CD8+ Naive T cells, CD8+ T cells, NK cells, and T regulatory cells.
(§3) Conjugates of Table 13 were synthesized by modification of SEQ NO. 1. These studies were performed at PrimityBio LLC (Fremont, CA).

A further data set relates to NK cells. The data set can be described thus: pSTAT5 signaling in human LRS-derived PBMC samples, NK cells (flow cytometry). In kind it is cell-based. As to conditions: Table 13 (Example 11). As for the experimental part: as §1, §3
The subject of another data set is Treg cells. The data set can be described thus: pSTAT5 signaling in human LRS-derived PBMC samples, Treg cells (flow cytometry). In kind it is cell-based. As to conditions: for EC50 for pSTAT5 signaling, Treg cells: Table 13 (Example 11); for Fold increase in Treg EC50 vs native IL-2: compared to native IL-2 run in each individual experiment. On the procedure: as §1, §2, §3

For the next data set, the system named is CTLL-2. The experiment in a line: CTLL-2 proliferation. In kind it is cell-based, mouse. As to conditions: Table 13 (Example 11).
For data set [1] the following is noted: human transferrin; cited from earlier work.

Consider “N88R/D109_30kD: IL-2 variant with N88R substitution and 30 kD PEG at D109”, for which, in the data set with CD8+ T cells, the “CD8+/Treg ratio” value is on record as 71 and the “EC50 for pSTAT5 signaling, CD8+ Tcells” value was found to be 12503386 pg/ml. In the data set on NK cells, the “EC50 for pSTAT5 signaling, NK cells” value is reported as 2780819 pg/ml. In the data set on Treg cells, the “EC50 for pSTAT5 signaling, Treg cells” value is reported as 175805 pg/ml and the “Fold increase in Treg EC50 vs native IL-2” value (“Fold increase in Treg EC50” for short) was 3663. Moreover, the “EC50 CTLL-2 proliferation” value in the data set with CTLL-2 was determined as 59.577 ng/mL.
On to “N88R: IL-2 variant with N88R substitution [reference compound]”, for which, in the data set on CD8+ T cells, the “CD8+/Treg ratio” value amounted to 1356 and the “EC50 for pSTAT5 signaling, CD8+ Tcells” value is recorded as 15025734 pg/ml. In addition, the “EC50 for pSTAT5 signaling, NK cells” value with NK cells amounted to 2312847 pg/ml. In addition, in the data set on Treg cells, the “EC50 for pSTAT5 signaling, Treg cells” value worked out at 11082 pg/ml and the “Fold increase in Treg EC50” value was determined as 148. In addition, in the data set with CTLL-2, the “EC50 CTLL-2 proliferation” value was 0.363 ng/mL.
Regarding “human transferrin: 679 amino acid polypeptide that is about 80 kDa in size and comprises two Fe^3+ binding sites”, the half-life in data set [1] was 170 to 288 h.
In the case of “V91K: IL-2 variant with V91K substitution [reference compound]”, in the data set with CD8+ T cells, the “CD8+/Treg ratio” value is 720 and the “EC50 for pSTAT5 signaling, CD8+ Tcells” value came out at 102255 pg/ml. Besides, the “EC50 for pSTAT5 signaling, NK cells” value with NK cells is recorded as 20537 pg/ml. Further, in the data set on Treg cells, the “EC50 for pSTAT5 signaling, Treg cells” value came to 142 pg/ml and the “Fold increase in Treg EC50” value is listed as 3. For the same substance, the “EC50 CTLL-2 proliferation” value in the data set with CTLL-2 was found to be 0.0995 ng/mL.
